Patent publication US8324346B2, “Bioactive keratin peptides” (Keraplast Technologies, Ltd., priority 2002, dated 2012)

System: Normal human adult dermal fibroblasts
Test: Cell Titer96 Cell Proliferation Assay: mitogenic effects of synthesized peptides on human fibroblasts in culture for 5 days
Type: cell-based
Settings: normalized to baseline controls
Protocol: Normal human adult dermal fibroblasts were cultured in fibroblast growth medium (Clonetics™/BioWhittaker, San Diego, Calif., USA). Passage 5 cells were seeded into wells of 96 well plates at 5×10^3 cells/well. Test peptide solutions were prepared at approximately 1.5 mg/ml in sterile water. Small volumes of 0.1N NH4OH were added dropwise to peptide the peptide solutions to completely solubilize the peptides as recommended by the manufacturer (New England Peptide, Inc., Fitchburg, Miss., USA). The volume of NH4OH added to the solution was recorded and used to adjust beginning concentration. Solutions were serially diluted in fibroblast culture medium from 100-0.001 μg/ml, then added to the cells and cultured for 5 days. At day 3, test and control media were removed from each well by vacuum and replaced with fresh test or control solutions. Samples were evaluated in 4 replicate wells. Note in each plate, wells were selected at random to be used as baseline controls to account for any variation in cell seeding between plates. After 5 days, cell proliferation was assessed spectrophotometrically using the Cell Titer96® Cell Proliferation Assay (Promega Corp., Madison, Wis., USA). Absorbance values were normalized to baseline controls and expressed as percent increased (positive values) or decreased (negative values) proliferation.

Row | Substance | percent increased (positive values) or decreased (negative values) proliferation, concentration 0.001 ug/mL | percent increased (positive values) or decreased (negative values) proliferation, concentration 0.01 ug/mL | percent increased (positive values) or decreased (negative values) proliferation, concentration 0.1 ug/mL | percent increased (positive values) or decreased (negative values) proliferation, concentration 1 ug/mL | percent increased (positive values) or decreased (negative values) proliferation, concentration 10 ug/mL | percent increased (positive values) or decreased (negative values) proliferation, concentration 100 ug/mL
1 | AAPTV (Consensus peptide) [H2N-AAPTV-OH] | 11.0% | −0.2% | 0.3% | 2.8% | −5.9% | −5.9%
2 | AAPTVD (Consensus peptide) [H2N-AAPTVD-OH] | 11.6% | 7.9% | −1.1% | 1.7% | −2.0% | 1.6%
3 | APTVDLN (Consensus peptide) [H2N-APTVDLN-OH] | 1.2% | 3.9% | 2.8% | −6.0% | 8.1% | 6.7%
4 | DAAPTV (Consensus peptide) [H2N-DAAPTV-OH] | −3.0% | 9.5% | 7.5% | 3.5% | −6.1% | −2.7%
5 | DLNQ (Consensus peptide) [H2N-DLNQ-OH] | 15.9% | 8.9% | 2.6% | −0.8% | −0.7% | −3.6%
6 | DLNRVL (Consensus peptide) [H2N-DLNRVL-OH] | 14.4% | 11.5% | −0.4% | −2.8% | −3.5% | −1.2%
7 | DTAPTV (Consensus peptide) [H2N-DTAPTV-OH] | 3.2% | 2.5% | 6.7% | 2.9% | 2.2% | 7.6%
8 | EVDAAPT (Consensus peptide) [H2N-EVDAAPT-OH] | 6.5% | 8.9% | 5.4% | 7.1% | 16.5% | 4.1%
9 | LGDRL (Consensus peptide) [H2N-LGDRL-OH] | 10.3% | 0.0% | 0.6% | −4.8% | −3.1% | −3.8%
10 | LNVEV (Consensus peptide) [H2N-LNVEV-OH] | −1.0% | 0.9% | −10.8% | −11.4% | 15.9% | 13.9%
11 | RLNVEV (Consensus peptide) [H2N-RLNVEV-OH] | −2.6% | −6.0% | −4.3% | 1.9% | 6.4% | 10.6%
12 | SPLGD (Consensus peptide) [H2N-SPLGD-OH] | 11.8% | 1.7% | −4.2% | 1.5% | −1.2% | −4.3%
13 | TAPTV (Consensus peptide) [H2N-TAPTV-OH] | 5.2% | −1.2% | 9.4% | 8.2% | −2.7% | 0.7%
14 | TAPTVD (Consensus peptide) [H2N-TAPTVD-OH] | 0.3% | −0.9% | −0.5% | 2.1% | 4.0% | 6.9%
15 | TLRSP (Consensus peptide) [H2N-TLRSP-OH] | 4.7% | 1.9% | 7.7% | 6.6% | 14.7% | 18.8%
16 | VDAAPT (Consensus peptide) [H2N-VDAAPT-OH] | 1.6% | 2.9% | −3.6% | 4.5% | 6.2% | 13.3%
